Source: US20090247559A1 (Exelixis, Inc., priority 2007, published 2009)

Experiments:
[1] = target: PIM (PIM-1, PIM-2, and/or PIM-3); assay: PIM-1, PIM-2 and PIM-3 inhibition, biochemical chemiluminescence assays (Kinase Glo, IC50 determination); settings: Table 1 activity class; PIM refers to PIM-1, PIM-2, and/or PIM-3; read-out: PIM IC50 (Activity B)
[2] = target: CK2 (Homo sapiens, UniProt P68400); assay: CK2 inhibition, biochemical chemiluminescence holoenzyme assay (Kinase Glo, IC50 determination); settings: Table 1 activity class; symbol given only if active; read-out: CK2 IC50 (Activity C)
Sequence of CK2 (P68400 whole entry): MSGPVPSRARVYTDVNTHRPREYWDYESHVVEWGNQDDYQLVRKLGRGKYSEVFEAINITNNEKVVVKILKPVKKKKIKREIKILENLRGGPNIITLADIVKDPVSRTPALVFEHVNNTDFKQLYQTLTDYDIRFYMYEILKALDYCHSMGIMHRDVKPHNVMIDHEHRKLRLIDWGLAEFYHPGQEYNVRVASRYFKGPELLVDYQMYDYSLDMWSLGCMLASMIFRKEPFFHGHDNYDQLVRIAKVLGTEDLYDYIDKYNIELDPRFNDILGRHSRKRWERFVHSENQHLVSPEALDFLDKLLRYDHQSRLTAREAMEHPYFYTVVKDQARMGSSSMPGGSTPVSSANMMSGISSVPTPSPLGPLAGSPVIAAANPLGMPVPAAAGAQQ
Sequence of CK2 (P67870 whole entry partner): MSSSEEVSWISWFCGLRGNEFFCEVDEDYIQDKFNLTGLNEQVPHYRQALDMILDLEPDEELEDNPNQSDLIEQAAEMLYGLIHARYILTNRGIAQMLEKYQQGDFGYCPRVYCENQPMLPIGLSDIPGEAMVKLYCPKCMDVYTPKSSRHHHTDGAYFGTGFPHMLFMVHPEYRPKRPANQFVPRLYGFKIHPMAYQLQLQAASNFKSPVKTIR
Method: Characterization of CK2 Inhibition in a Biochemical Chemiluminesence Assay (IC50 Determination):
The IC50 evaluation of compounds against CK2 was performed in a Chemiluminesence Holoenzyme assay utilizing a Greiner 384-well white medium binding white plate format. […] The assay procedure involves the compound dilution scheme followed by addition of 10 μL of the substrate twice, followed by 10 μL twice of the respective enzyme or buffer to the designated well plates and subsequent pre-incubation of the compounds. Following an incubation period of 150 minutes at ambient temperature (24-27° C.), 10 μL of Kinase Glo (Promega) was added. The luminescence was measured following a Luminescence Protocol on a Victor plate reader.

| SMILES | IC50 [1] [µM] | IC50 [2] [µM] |
| --- | --- | --- |
| Nc1ncc(Cl)c(-c2nc3c(oc4ccc(Br)cc43)c(=O)[nH]2)n1 [Compound 243, 2-(2-amino-5-chloropyrimidin-4-yl)-8-bromo[1]benzofuro[3,2-d]pyrimidin-4(3H)-one] | < 10 | < 10 |
| NCc1nc(-c2nc3c(oc4ccc(Br)cc43)c(=O)[nH]2)cs1 [Compound 352, 2-[2-(Aminomethyl)-1,3-thiazol-4-yl]-8-bromo[1]benzofuro[3,2-d]pyrimidin-4(3H)-one] | < 10 | < 10 |
| O=c1[nH]c(CN2CC[C@H](O)C2)nc2c1oc1ccc(OCc3ccccc3)cc12 [Compound 475, 2-{[(3S)-3-hydroxypyrrolidin-1-yl]methyl}-8-[(phenylmethyl)oxy][1]benzofuro[3,2-d]pyrimidin-4(3H)-one] | < 10 | < 10 |
| CN(C)C1CCN(Cc2nc3c(oc4ccc(Br)cc43)c(=O)[nH]2)C1 (centres unmarked) [Compound 17, 8-bromo-2-{[3-(dimethylamino)pyrrolidin-1-yl]methyl}[1]benzofuro[3,2-d]pyrimidin-4(3H)-one] | < 10 | < 10 |
| O=C(Nc1ccc(-c2nc3c(oc4ccc(Br)cc43)c(=O)[nH]2)c(Cl)c1)c1ccc(Br)cn1 [Compound 336, 5-bromo-N-[4-(8-bromo-4-oxo-3,4-dihydro[1]benzofuro[3,2-d]pyrimidin-2-yl)-3-chlorophenyl]pyridine-2-carboxamide] | < 10 | < 10 |
| O=c1[nH]c(CN2CCC(Cc3ccccc3)CC2)nc2c1oc1ccc(Br)cc12 [Compound 253, 8-bromo-2-{[4-(phenylmethyl)piperidin-1-yl]methyl}[1]benzofuro[3,2-d]pyrimidin-4(3H)-one] | < 10 | < 10 |
| O=c1[nH]c(CN2CCC[C@@H](O)C2)nc2c1oc1ccc(Br)cc12 [Compound 402, 8-bromo-2-{[(3R)-3-hydroxypiperidin-1-yl]methyl}[1]benzofuro[3,2-d]pyrimidin-4(3H)-one] | < 10 | < 10 |
| COc1cc2oc3c(=O)[nH]c(CN4CC[C@H](O)C4)nc3c2cc1Br [Compound 436, 8-bromo-2-{[(3S)-3-hydroxypyrrolidin-1-yl]methyl}-7-(methyloxy)[1]benzofuro[3,2-d]pyrimidin-4(3H)-one] | < 10 | < 10 |
| O=C(Nc1ccncc1)Nc1ccc(-c2nc3c(oc4ccc(Br)cc43)c(=O)[nH]2)c(Cl)c1 [Compound 415, 1-[4-(8-bromo-4-oxo-3,4-dihydro[1]benzofuro[3,2-d]pyrimidin-2-yl)-3-chlorophenyl]-3-pyridin-4-ylurea] | < 10 | < 10 |
| CN(Cc1nc2c(oc3ccc(Br)cc32)c(=O)[nH]1)c1ccccc1Cl [Compound 18, 8-bromo-2-{[(2-chlorophenyl)(methyl)amino]methyl}[1]benzofuro[3,2-d]pyrimidin-4(3H)-one] | < 10 | < 10 |
| CN1CCN(CC(C)(C)NCc2nc3c(oc4ccc(Br)cc43)c(=O)[nH]2)CC1 [Compound 212, 8-bromo-2-({[1,1-dimethyl-2-(4-methylpiperazin-1-yl)ethyl]amino}methyl)[1]benzofuro[3,2-d]pyrimidin-4(3H)-one] | < 10 | < 10 |
| NCc1cc(Cl)c(-c2nc3c(oc4ccc(Br)cc43)c(=O)[nH]2)cc1F [Compound 211, 2-[4-(aminomethyl)-2-chloro-5-fluorophenyl]-8-bromo[1]benzofuro[3,2-d]pyrimidin-4(3H)-one] | < 10 | < 10 |
| COc1ccc(-c2nc3c(oc4ccc(Br)cc43)c(=O)[nH]2)c(Cl)c1 [Compound 79, 8-bromo-2-[2-chloro-4-(methyloxy)phenyl][1]benzofuro[3,2-d]pyrimidin-4(3H)-one] | < 10 | < 10 |
| CCCCNc1ccc2oc3c(=O)[nH]c(CN4CC[C@H](O)C4)nc3c2c1 [Compound 446, 8-(butylamino)-2-{[(3S)-3-hydroxypyrrolidin-1-yl]methyl}[1]benzofuro[3,2-d]pyrimidin-4(3H)-one] | < 10 | < 10 |
| COCCC(=O)N1CCC(c2nc3c(oc4ccc(Br)cc43)c(=O)[nH]2)CC1 [Compound 209, 8-bromo-2-{1-[3-(methyloxy)propanoyl]piperidin-4-yl}[1]benzofuro[3,2-d]pyrimidin-4(3H)-one] | < 10 | < 10 |
| CC(=O)Nc1ccc(C(=O)Nc2ccc(Cl)c(-c3nc4c(oc5ccc(Br)cc54)c(=O)[nH]3)c2)cc1 [Compound 356, 4-(acetylamino)-N-[3-(8-bromo-4-oxo-3,4-dihydro[1]benzofuro[3,2-d]pyrimidin-2-yl)-4-chlorophenyl]benzamide] | < 10 | < 10 |
| CC(O)CN(Cc1nc2c(oc3ccc(Br)cc32)c(=O)[nH]1)CC(C)O (centres unmarked) [Compound 403, 2-{[bis(2-hydroxypropyl)amino]methyl}-8-bromo[1]benzofuro[3,2-d]pyrimidin-4(3H)-one] | < 10 | < 10 |
| O=c1[nH]c(-c2c(Cl)cccc2Cl)nc2c1oc1ccc(Br)cc12 [Compound 36, 8-Bromo-2-(2,6-dichlorophenyl)[1]benzofuro[3,2-d]pyrimidin-4(3H)-one] | < 10 | < 10 |
| O=c1[nH]c(-c2cccs2)nc2c1oc1ccc(Br)cc12 [Compound 59, 8-bromo-2-(2-thienyl)[1]benzofuro[3,2-d]pyrimidin-4(3H)-one] | < 10 | < 10 |
| O=c1[nH]c(COc2ccccc2)nc2c1oc1ccc(Br)cc12 [Compound 15, 8-bromo-2-[(phenyloxy)methyl][1]benzofuro[3,2-d]pyrimidin-4(3H)-one] | < 10 | < 10 |
| CC(=O)Nc1ccc(-c2nc3c(oc4ccc(Br)cc43)c(=O)[nH]2)cc1 [Compound 80, N-[4-(8-bromo-4-oxo-3,4-dihydro[1]benzofuro[3,2-d]pyrimidin-2-yl)phenyl]acetamide] | < 10 | < 10 |
| O=C(NCc1ccccc1Cl)C1(O)CCN(Cc2nc3c(oc4ccc(Br)cc43)c(=O)[nH]2)C1 (centres unmarked) [Compound 411, ′1-[(8-bromo-4-oxo-3,4-dihydro[1]benzofuro[3,2-d]pyrimidin-2-yl)methyl]-N-[(2-chlorophenyl)methyl]-3-hydroxypyrrolidine-3-carboxamide] | < 10 | < 10 |
| O=C(NC1CCCCC1)c1cccc(-c2nc3c(oc4ccc(Br)cc43)c(=O)[nH]2)c1 [Compound 92, 3-(8-bromo-4-oxo-3,4-dihydro[1]benzofuro[3,2-d]pyrimidin-2-yl)-N-cyclohexylbenzamide] | < 10 | < 10 |
| CCc1nccn1Cc1nc2c(oc3ccc(Br)cc32)c(=O)[nH]1 [Compound 149, 8-bromo-2-[(2-ethyl-1H-imidazol-1-yl)methyl][1]benzofuro[3,2-d]pyrimidin-4(3H)-one] | < 10 | < 10 |
| O=c1[nH]c(CN2CCC(c3ccccc3)CC2)nc2c1oc1ccc(Br)cc12 [Compound 238, 8-bromo-2-[(4-phenylpiperidin-1-yl)methyl][1]benzofuro[3,2-d]pyrimidin-4(3H)-one] | < 10 | < 10 |
